The target in assay [1] is T1, human ALK2 (Homo sapiens, UniProt Q04771).
T1 sequence (Q04771 21-509): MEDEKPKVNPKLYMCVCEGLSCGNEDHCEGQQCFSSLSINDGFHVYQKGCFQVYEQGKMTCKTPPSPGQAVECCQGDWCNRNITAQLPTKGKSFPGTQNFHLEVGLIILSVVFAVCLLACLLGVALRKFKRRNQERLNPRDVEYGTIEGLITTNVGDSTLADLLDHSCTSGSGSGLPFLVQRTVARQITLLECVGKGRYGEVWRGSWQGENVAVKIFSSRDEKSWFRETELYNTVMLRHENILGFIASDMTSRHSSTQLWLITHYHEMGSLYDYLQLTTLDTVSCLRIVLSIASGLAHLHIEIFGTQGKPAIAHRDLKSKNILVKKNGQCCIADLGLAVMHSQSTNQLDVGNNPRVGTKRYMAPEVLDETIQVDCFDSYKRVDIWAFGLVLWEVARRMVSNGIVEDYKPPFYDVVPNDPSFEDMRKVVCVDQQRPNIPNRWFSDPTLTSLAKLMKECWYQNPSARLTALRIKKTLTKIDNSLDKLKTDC
Description: Activin-Like Kinase 2 (ALK2) enzyme assay (33P-casein). It counts as biochemical. The note with it: casein 1 mg/mL, 30 min; NI = no inhibition observed. The procedure:
Activin-Like Kinase 2 (ALK2) Enzyme Assay
Enzyme inhibitory activity was evaluated in a standard kinase enzyme assay by incubating human ALK2 with the protein substrate casein (1 mg/mL) and γ-^33ATP (10 µM) in the presence of various concentrations of test compounds (10 nM-100 μM). After 30 min the amount of ^33P-casein was determined.

Assay [2] concerns the target Recombinant RIPK2 protein (Homo sapiens, UniProt O43353). Description: Receptor Interacting Protein Kinase 2 (RIPK2) enzyme assay (ADP-Glo). It counts as biochemical. The note with it: 2 h at room temperature. From the text: Receptor Interacting Protein Kinase 2 (RIPK2) Enzyme Assay
Inhibition, %=(1−(test signal/maximal signal))*100.
(In general: ADP-Glo turns the ADP formed in a reaction into a luminescent signal.)

Assay [3] has as its system NOD2 cellular signaling. The assay can be described thus: NOD2 signaling assay in HEK-Blue cells (NFkB-SEAP reporter, L18-MDP stimulated). The assay is classed as cell-based. The note with it: HEK-Blue cells expressing human NOD2, L18-MDP stimulation, 8 h; NI = no inhibition observed; read-out: EC50 HEK Blue RIPK2. The procedure: HEK-Blue cells expressing human NOD2 and NFkB-SAEP reporter (Invivogen) are seeded into 96 well clear plates at 7.5×10^3 cells per well in 100 μL of DMEM media supplemented with 10% FBS and 1% antibiotic-antimycotic mix. Cells are allowed to attach for 48 h in 5% CO2 tissue culture incubator at 37° C. On the morning of the experiment, media in the wells is replaced with 100 μL of HEK-Blue detection media (Invivogen). Cells are treated with the inhibitors, diluted in DMSO (0.5 μL per well) for 15 min in 5% CO2 tissue culture incubator at 37° C. After that, cells are stimulated by the addition of 1 ng/well L18-MDP (Invivogen). Cells are incubated in 5% CO2 tissue culture incubator at 37° C. for 8 h and absorbance, corresponding to the SEAP in the media, is determined in Wallac3V plate reader (Perkin Elmer). Inhibition, %=(1−((sample signal-unstimulated and DMSO treated cells)/(L18-MDP stimulated and DMSO treated cells—unstimulated and DMSO treated cells)))*100.

Molecules are shown by their SMILES.

What is called IC50 is the concentration at which inhibition is half-maximal. What is called EC50 is the concentration giving half of the maximal effect.

Sequence of Recombinant RIPK2 protein (O43353 whole entry): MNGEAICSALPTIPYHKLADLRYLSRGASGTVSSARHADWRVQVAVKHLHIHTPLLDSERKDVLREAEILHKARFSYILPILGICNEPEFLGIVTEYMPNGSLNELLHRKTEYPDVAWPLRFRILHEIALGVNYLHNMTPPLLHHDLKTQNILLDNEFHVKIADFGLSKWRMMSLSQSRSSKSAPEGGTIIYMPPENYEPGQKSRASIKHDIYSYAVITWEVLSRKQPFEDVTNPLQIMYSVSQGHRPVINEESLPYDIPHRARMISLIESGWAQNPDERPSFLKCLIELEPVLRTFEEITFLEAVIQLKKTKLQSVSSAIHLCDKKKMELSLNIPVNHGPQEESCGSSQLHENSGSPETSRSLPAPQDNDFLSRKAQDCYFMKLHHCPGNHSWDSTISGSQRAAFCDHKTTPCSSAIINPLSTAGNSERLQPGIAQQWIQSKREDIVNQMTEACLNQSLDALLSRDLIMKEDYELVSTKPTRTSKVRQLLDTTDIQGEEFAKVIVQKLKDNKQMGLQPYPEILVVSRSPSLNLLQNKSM

On to `CS(=O)(=O)c1cccc(Nc2ncc3cc(-c4ccc(O)cc4)ccc3n2)c1` [UH15PN3, 4-(2-((3-(methylsulfonyl)phenyl)amino)quinazolin-6-yl)phenol], for which the IC50 was found to be 8420 nM in assay [1] and 29.6 nM in assay [2].
As to `CS(=O)(=O)c1cccc(Nc2ncc3cc(-c4ccccn4)ccc3n2)c1` [UH15PN5, N-(3-(methylsulfonyl)phenyl)-6-(pyridin-2-yl)quinazolin-2-amine], the EC50 in assay [3] stood at 1960 nM. In assay [2], the 50% inhibitory concentration (IC50) was 41.5 nM.
Take `CS(=O)(=O)c1cccc(Nc2ncc3cc(-c4cccnc4)ccc3n2)c1` [UH15PN6, N-(3-(methylsulfonyl)phenyl)-6-(pyridin-3-yl)quinazolin-2-amine]: in assay [3], the EC50 is 450 nM. Further, the half-maximal inhibitory concentration (IC50) in assay [2] turned out to be 25 nM.
Turning to `Cn1c(=O)c(-c2ccccc2Cl)cc2cnc(Nc3cccnc3)nc21` [UH15_34, 6-(2-chlorophenyl)-8-methyl-2-(pyridin-3-ylamino)pyrido[2,3-d]pyrimidin-7(8H)-one], in assay [3], the EC50 came out at 34 nM. Further, the IC50 stood at 1100 nM in assay [1] and 35.2 nM in assay [2].
Regarding `Cn1c(=O)c(-c2ccccc2Cl)cc2cnc(Nc3cccc(N4CCNCC4)c3)cc21` [UH15_25, 3-(2-chlorophenyl)-1-methyl-7-((3-(piperazin-1-yl)phenyl)amino)-1,6-naphthyridin-2(1H)-one], in assay [3], the EC50 was found to be 55 nM.
Consider `CCN(CC)CCOc1ccc(Nc2ncc3cc(-c4ccccc4Cl)ccc3n2)cc1` [UH15PN1, 6-(2-chlorophenyl)-N-(4-(2-(diethylamino)ethoxy)phenyl)quinazolin-2-amine], for which the EC50 in assay [3] was determined as 168 nM. In addition, the IC50 in assay [1] was determined as 326 nM; in assay [2], 22.1 nM.
In the case of `Cn1c(=O)c(-c2ccccc2Cl)cc2cnc(Nc3ccccn3)nc21` [UH15_35, 6-(2-chlorophenyl)-8-methyl-2-(pyridin-2-ylamino)pyrido[2,3-d]pyrimidin-7(8H)-one], in assay [3], the EC50 was found to be 949 nM. Moreover, the IC50 in assay [2] was determined as 87.4 nM.
Regarding `Cn1c(=O)c(-c2ccccc2Cl)cc2cnc(Nc3cccc(S(C)(=O)=O)c3)cc21` [UH15_32, 3-(2-chlorophenyl)-1-methyl-7-((3-(methylsulfonyl)phenyl)amino)-1,6-naphthyridin-2(1H)-one], the EC50 in assay [3] turned out to be 406 nM. Moreover, the IC50 in assay [1] was over 100000 nM; in assay [2], 27.3 nM.
As to `CS(=O)(=O)c1cccc(Nc2ncc3cc(-c4ccccc4Cl)ccc3n2)c1` [UH15PN2, 6-(2-chlorophenyl)-N-(3-(methylsulfonyl)phenyl)quinazolin-2-amine], in assay [3], the EC50 is 353 nM. Further, the IC50 in assay [1] is over 100000 nM; in assay [2] it was 30.2 nM.
In the case of `Cn1c(=O)c(-c2ccccc2Cl)cc2cnc(Nc3cccc(N4CCNCC4)c3)nc21` [UH15_33, 6-(2-chlorophenyl)-8-methyl-2-((3-(piperazin-1-yl)phenyl)amino)pyrido[2,3-d]pyrimidin-7(8H)-one], the EC50 in assay [3] was 0.2 nM. Also, the IC50 in assay [1] worked out at 226 nM; in assay [2], 21.6 nM.
